Assay results taken from the supplement of paper PMC10307832.

Legend:
Assay in all cases: relative viability (nuclei count vs DMSO), 5 days (fraction); higher = more cells survive
[1] = tested on: HCC-78
How it was run: (§1)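 Values are medians from duplicate plates. Each reflects relative viability, defined as the nuclei count of treated wells over that of vehicle wells. Lung cancer cell lines in 1536-well plates were pin-tool dosed one day after seeding with one drug alone or with a fixed anchor-drug dose plus five library-drug doses (not always all listed) in √10 steps, then fixed, stained and imaged at 4× after 5 days.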

[2] = tested on: NCI-H1623
How it was run: as §1

[3] = tested on: NCI-H1648
How it was run: as §1

[4] = tested on: NCI-H2009
How it was run: as §1

[5] = tested on: NCI-H2342
How it was run: as §1

[6] = tested on: NCI-H358
How it was run: as §1

[7] = tested on: NCI-H460
How it was run: as §1

[8] = tested on: NCI-H522
How it was run: as §1

[9] = tested on: NCI-H661
How it was run: as §1

SMILES: CC(=O)O[C@@]12CO[C@@H]1C[C@H](O)[C@@]1(C)C(=O)[C@H](O)C3=C(C)[C@@H](OC(=O)[C@H](O)[C@@H](NC(=O)OC(C)(C)C)c4ccccc4)C[C@@](O)([C@@H](OC(=O)c4ccccc4)[C@H]21)C3(C)C [Docetaxel] + COc1cccc2cc(-c3nc([C@H]4CC[C@H](C(=O)O)CC4)n4ncnc(N)c34)[nH]c12 [OSI-027] (partner 0.5 µM)
- relative viability ([1]; first compound 0.0002 µM): 0.321
- relative viability ([1]; first compound 0.000632 µM): 0.308
- relative viability ([1]; first compound 0.002 µM): 0.315
- relative viability ([1]; first compound 0.006325 µM): 0.278
- relative viability ([1]; first compound 0.02 µM): 0.284
- relative viability ([2]; first compound 0.0002 µM): 0.391
- relative viability ([2]; first compound 0.000632 µM): 0.438
- relative viability ([2]; first compound 0.002 µM): 0.339
- relative viability ([2]; first compound 0.006325 µM): 0.335
- relative viability ([2]; first compound 0.02 µM): 0.298
- relative viability ([3]; first compound 0.0002 µM): 0.28
- relative viability ([3]; first compound 0.000632 µM): 0.267
- relative viability ([3]; first compound 0.002 µM): 0.232
- relative viability ([3]; first compound 0.006325 µM): 0.218
- relative viability ([3]; first compound 0.02 µM): 0.248
- relative viability ([4]; first compound 0.0002 µM): 0.618
- relative viability ([4]; first compound 0.000632 µM): 0.66
- relative viability ([4]; first compound 0.002 µM): 0.491
- relative viability ([4]; first compound 0.006325 µM): 0.231
- relative viability ([4]; first compound 0.02 µM): 0.134
- relative viability ([5]; first compound 0.0002 µM): 0.592
- relative viability ([5]; first compound 0.000632 µM): 0.609
- relative viability ([5]; first compound 0.002 µM): 0.502
- relative viability ([5]; first compound 0.006325 µM): 0.46
- relative viability ([5]; first compound 0.02 µM): 0.423
- relative viability ([6]; first compound 0.0002 µM): 0.738
- relative viability ([6]; first compound 0.000632 µM): 0.23
- relative viability ([6]; first compound 0.006325 µM): 0.0795
- relative viability ([6]; first compound 0.02 µM): 0.0599
- relative viability ([7]; first compound 0.0002 µM): 0.645
- relative viability ([7]; first compound 0.000632 µM): 0.238
- relative viability ([7]; first compound 0.002 µM): 0.0745
- relative viability ([7]; first compound 0.006325 µM): 0.0177
- relative viability ([7]; first compound 0.02 µM): 0.0139
- relative viability ([8]; first compound 0.0002 µM): 0.666
- relative viability ([8]; first compound 0.000632 µM): 0.657
- relative viability ([8]; first compound 0.002 µM): 0.541
- relative viability ([8]; first compound 0.006325 µM): 0.496
- relative viability ([8]; first compound 0.02 µM): 0.426
- relative viability ([9]; first compound 0.0002 µM): 0.694
- relative viability ([9]; first compound 0.000632 µM): 0.727
- relative viability ([9]; first compound 0.002 µM): 0.521
- relative viability ([9]; first compound 0.006325 µM): 0.29
- relative viability ([9]; first compound 0.02 µM): 0.307

SMILES: COc1cc2nccc(Oc3ccc(NC(=O)Nc4cc(C)on4)c(Cl)c3)c2cc1OC [Tivozanib] + Cc1cc(Nc2cc(N3CCN(C)CC3)nc(Sc3ccc(NC(=O)C4CC4)cc3)n2)n[nH]1 [Tozasertib] (partner 0.1 µM)
- relative viability ([1]; first compound 0.005 µM): 0.324
- relative viability ([1]; first compound 0.01581 µM): 0.472
- relative viability ([1]; first compound 0.05 µM): 0.347
- relative viability ([1]; first compound 0.1581 µM): 0.501
- relative viability ([1]; first compound 0.5 µM): 0.328
- relative viability ([2]; first compound 0.005 µM): 0.42
- relative viability ([2]; first compound 0.01581 µM): 0.467
- relative viability ([2]; first compound 0.05 µM): 0.47
- relative viability ([2]; first compound 0.5 µM): 0.424
- relative viability ([3]; first compound 0.005 µM): 0.482
- relative viability ([3]; first compound 0.01581 µM): 0.534
- relative viability ([3]; first compound 0.05 µM): 0.436
- relative viability ([3]; first compound 0.1581 µM): 0.536
- relative viability ([3]; first compound 0.5 µM): 0.545
- relative viability ([4]; first compound 0.005 µM): 0.708
- relative viability ([4]; first compound 0.01581 µM): 0.738
- relative viability ([4]; first compound 0.05 µM): 0.733
- relative viability ([4]; first compound 0.1581 µM): 0.725
- relative viability ([4]; first compound 0.5 µM): 0.759
- relative viability ([5]; first compound 0.005 µM): 0.469
- relative viability ([5]; first compound 0.01581 µM): 0.543
- relative viability ([5]; first compound 0.05 µM): 0.603
- relative viability ([5]; first compound 0.5 µM): 0.43
- relative viability ([6]; first compound 0.005 µM): 0.0936
- relative viability ([6]; first compound 0.01581 µM): 0.101
- relative viability ([6]; first compound 0.05 µM): 0.102
- relative viability ([6]; first compound 0.1581 µM): 0.102
- relative viability ([6]; first compound 0.5 µM): 0.108
- relative viability ([7]; first compound 0.005 µM): 0.394
- relative viability ([7]; first compound 0.01581 µM): 0.394
- relative viability ([7]; first compound 0.05 µM): 0.536
- relative viability ([7]; first compound 0.1581 µM): 0.554
- relative viability ([7]; first compound 0.5 µM): 0.446
- relative viability ([8]; first compound 0.005 µM): 0.581
- relative viability ([8]; first compound 0.01581 µM): 0.553
- relative viability ([8]; first compound 0.05 µM): 0.581
- relative viability ([8]; first compound 0.1581 µM): 0.536
- relative viability ([8]; first compound 0.5 µM): 0.577
- relative viability ([9]; first compound 0.005 µM): 0.37
- relative viability ([9]; first compound 0.01581 µM): 0.362
- relative viability ([9]; first compound 0.05 µM): 0.359
- relative viability ([9]; first compound 0.1581 µM): 0.363
- relative viability ([9]; first compound 0.5 µM): 0.363
